In patent US9963482B2, “Phosphatidylinositol-3-kinase inhibitor and pharmaceutical composition” (Tohoku University, priority 2011, dated 2018):

How the values were obtained:
[1] = test system: HCT116 cells; assay: FACS cell cycle analysis in HCT116 cells; assay type: cell-based, human; conditions: HCT116, 24 hours; SAHA 2.5 μM, LY294002 50 μM, FK228 or FK-A5 at low concentration
Method: The cells were collected, fixed with ethanol, stained with iodopropidium/PBS solution, and analyzed by using “Cytomics FC500 Flow Cytometry System” (trade name, manufactured by Beckman Coulter). The cell cycle fractions were calculated by using “Multicycle software” (trade name, manufactured by Phenomix Flow Systems).

[2] = biological target: HDAC1 (Homo sapiens, UniProt Q13547); conditions: Table 2; cited from earlier work
[3] = biological target: T1, HDAC6 (Homo sapiens, UniProt Q9UBN7); conditions: Table 2; cited from earlier work
T1 sequence (Q9UBN7 1-1215): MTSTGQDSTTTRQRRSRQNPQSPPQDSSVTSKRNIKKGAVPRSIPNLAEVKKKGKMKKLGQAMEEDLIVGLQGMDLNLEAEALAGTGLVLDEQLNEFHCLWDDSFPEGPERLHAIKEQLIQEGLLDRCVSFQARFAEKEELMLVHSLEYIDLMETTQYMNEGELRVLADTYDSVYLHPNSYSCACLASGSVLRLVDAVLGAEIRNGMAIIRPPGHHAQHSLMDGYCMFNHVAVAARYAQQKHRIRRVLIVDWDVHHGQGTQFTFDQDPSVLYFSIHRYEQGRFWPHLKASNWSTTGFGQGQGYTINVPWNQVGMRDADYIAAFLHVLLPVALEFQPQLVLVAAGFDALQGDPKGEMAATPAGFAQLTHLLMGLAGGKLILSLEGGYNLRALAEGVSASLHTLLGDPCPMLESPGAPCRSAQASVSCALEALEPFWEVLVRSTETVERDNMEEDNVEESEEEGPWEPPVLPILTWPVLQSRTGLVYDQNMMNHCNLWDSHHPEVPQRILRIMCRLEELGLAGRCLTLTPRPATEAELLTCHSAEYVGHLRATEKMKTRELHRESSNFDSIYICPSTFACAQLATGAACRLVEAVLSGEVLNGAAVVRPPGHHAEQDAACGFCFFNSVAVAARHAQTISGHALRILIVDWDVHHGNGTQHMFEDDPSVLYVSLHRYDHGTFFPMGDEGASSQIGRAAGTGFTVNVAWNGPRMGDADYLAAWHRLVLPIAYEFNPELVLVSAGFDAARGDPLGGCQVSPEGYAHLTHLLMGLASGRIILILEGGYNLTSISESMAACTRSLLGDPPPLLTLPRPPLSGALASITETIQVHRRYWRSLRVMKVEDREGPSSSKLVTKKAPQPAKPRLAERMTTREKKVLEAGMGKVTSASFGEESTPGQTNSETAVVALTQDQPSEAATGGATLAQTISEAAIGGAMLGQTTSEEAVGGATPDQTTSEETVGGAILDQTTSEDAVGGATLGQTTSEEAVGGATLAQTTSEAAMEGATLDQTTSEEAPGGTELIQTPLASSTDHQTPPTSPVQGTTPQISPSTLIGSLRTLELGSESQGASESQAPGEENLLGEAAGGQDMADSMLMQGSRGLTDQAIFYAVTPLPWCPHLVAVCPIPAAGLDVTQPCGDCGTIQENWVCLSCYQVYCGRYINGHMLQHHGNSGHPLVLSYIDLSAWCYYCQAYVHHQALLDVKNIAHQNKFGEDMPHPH

[4] = biological target: T2, PI3K (p110α/p85α) (Homo sapiens, UniProt P42336); assay: In vitro PI3K inhibitory activity by mobility shift assay (Carna Biosciences); assay type: biochemical; conditions: for IC50: Table 3, PI3K (p110α/p85α), read-out: PI3K IC50; for PI3K activity inhibitory rate: compound 20 μM, 50 μM ATP
T2 construct: purchased Carna Biosciences, Inc. (Kobe); contract measurement
Method: The PI3K (p110α/p85α) inhibitory activity was evaluated at Carna Biosciences, Inc. (Kobe) by mobility shift assay which included isolation and quantification of a substrate and the phosphorylated substrate based on the mobility in a capillary (https://www.carnabio.com/japanese/product/search.cgi?mode=profiling). […] After allowing the reaction to occur for 5 hours at room temperature, the mobility shift assay was performed. The test was performed in duplicate.
Inhibition rate was calculated as follows.
The value of product/substrate+product when an agent was added thereto was calculated similarly, and the inhibition rate was calculated based on a difference from the control value.

[5] = biological target: T3, human p110α expressed in budding yeast (Homo sapiens, UniProt P42336); assay: Screening of PI3K inhibitor using budding yeast (recovery from cell proliferation disorder caused by p110α); assay type: cell-based; conditions: AD1-9 transformant expressing p110α, compound 5 μM, 24 hours, average of three tests
T3 construct: expressed in transfected cells; host or cells: Saccharomyces cerevisiae AD1-9 (LEU2-disrupted), galactose-induced
Method: AD1-9 strain can be obtained from Nader Nourizad (Stanford Genome Technology Center Stanford University, CA, USA).
The transformed AD 1-9 strain was cultured at 30° C. in a minimal complete medium SC-U-L containing no uracil and leucine or SGal-U-L in which 2% glucose was replaced with 2% galactose.
By using the aforementioned system, screening of the compound library, which was obtained from the Screening committee of anticancer drugs supported by grant-in-aid for scientific research on priority area “Cancer” from Ministry of Education, Culture, Sports, Science, and Technology, Japan, was performed. Each compound was added to SGal-U-L liquid medium to constitute a concentration of 0.5 μM or 5 μM and the transformant of AD 1-9 was cultured for 24 hours under shaking. Thereafter, A600 was measured. […] Three independent tests were repeatedly performed to calculate the average value of A600.

[6] = test system: AKT pathway in PC3 (prostate cancer) cells; assay: AKT pathway inhibition by Western blotting in PC3 cells; assay type: cell-based, human; conditions: 10 μM, 5 to 180 minutes
Method: PC3 cells were obtained from Cell Resource Center for Medical Research of Institute of Development, Aging, and Cancer, Tohoku University. The cells were cultured at 37° C. in the presence of 5% CO2 by using RPMI1640 medium containing inactivated fetal bovine serum at the concentration of 10%.
Western blotting was performed as follows. Various kinds of the cells treated with each compound were collected and lysed in a lysis buffer (500 mM Tris-HCl pH 7.5, 100 mM NaCl, 2 mM EDTA, 1 mM sodium orthovanadate, 1% NP-40, and 1% protease inhibitor cocktail, manufactured by SIGMA-ALDRICH). After centrifugation, the supernatants were collected.
The followings were used as primary antibodies.
As a secondary antibody, “Alexa Fluor680IgG” (trade name, manufactured by Invitrogen) was used. By using “Odyssey Infrared Imaging System” (trade name, manufactured by LI-COR), expression of the protein of interest was determined.

T3 sequence (P42336 whole entry): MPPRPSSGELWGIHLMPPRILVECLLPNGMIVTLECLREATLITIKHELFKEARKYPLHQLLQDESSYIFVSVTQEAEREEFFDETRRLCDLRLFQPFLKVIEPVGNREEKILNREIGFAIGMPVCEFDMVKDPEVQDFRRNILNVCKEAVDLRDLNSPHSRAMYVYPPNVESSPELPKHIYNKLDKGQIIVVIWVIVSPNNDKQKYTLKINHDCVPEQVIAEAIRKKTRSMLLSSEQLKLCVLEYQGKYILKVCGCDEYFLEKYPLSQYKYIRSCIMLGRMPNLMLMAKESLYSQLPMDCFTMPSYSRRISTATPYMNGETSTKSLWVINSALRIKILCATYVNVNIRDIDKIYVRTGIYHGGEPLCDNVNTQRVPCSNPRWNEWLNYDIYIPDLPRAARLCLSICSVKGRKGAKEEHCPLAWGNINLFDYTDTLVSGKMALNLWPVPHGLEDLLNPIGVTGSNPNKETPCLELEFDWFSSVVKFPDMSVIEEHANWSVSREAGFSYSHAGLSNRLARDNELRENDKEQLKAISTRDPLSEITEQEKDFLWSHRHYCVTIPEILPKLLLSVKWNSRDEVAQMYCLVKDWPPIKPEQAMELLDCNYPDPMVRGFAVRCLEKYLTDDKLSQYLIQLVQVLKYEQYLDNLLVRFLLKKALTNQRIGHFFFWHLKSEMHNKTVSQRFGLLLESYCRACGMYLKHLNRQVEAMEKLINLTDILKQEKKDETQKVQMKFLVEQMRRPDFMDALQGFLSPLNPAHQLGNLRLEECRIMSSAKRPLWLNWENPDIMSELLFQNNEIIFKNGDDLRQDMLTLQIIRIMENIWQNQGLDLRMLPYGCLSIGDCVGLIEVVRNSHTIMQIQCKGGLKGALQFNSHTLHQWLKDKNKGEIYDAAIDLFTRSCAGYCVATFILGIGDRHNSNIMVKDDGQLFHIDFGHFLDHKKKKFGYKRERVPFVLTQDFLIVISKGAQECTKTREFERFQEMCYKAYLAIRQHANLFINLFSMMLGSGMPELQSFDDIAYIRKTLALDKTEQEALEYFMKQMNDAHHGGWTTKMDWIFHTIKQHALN
T2 sequence (P42336 whole entry): as above
T2 sequence (P27986 whole entry partner): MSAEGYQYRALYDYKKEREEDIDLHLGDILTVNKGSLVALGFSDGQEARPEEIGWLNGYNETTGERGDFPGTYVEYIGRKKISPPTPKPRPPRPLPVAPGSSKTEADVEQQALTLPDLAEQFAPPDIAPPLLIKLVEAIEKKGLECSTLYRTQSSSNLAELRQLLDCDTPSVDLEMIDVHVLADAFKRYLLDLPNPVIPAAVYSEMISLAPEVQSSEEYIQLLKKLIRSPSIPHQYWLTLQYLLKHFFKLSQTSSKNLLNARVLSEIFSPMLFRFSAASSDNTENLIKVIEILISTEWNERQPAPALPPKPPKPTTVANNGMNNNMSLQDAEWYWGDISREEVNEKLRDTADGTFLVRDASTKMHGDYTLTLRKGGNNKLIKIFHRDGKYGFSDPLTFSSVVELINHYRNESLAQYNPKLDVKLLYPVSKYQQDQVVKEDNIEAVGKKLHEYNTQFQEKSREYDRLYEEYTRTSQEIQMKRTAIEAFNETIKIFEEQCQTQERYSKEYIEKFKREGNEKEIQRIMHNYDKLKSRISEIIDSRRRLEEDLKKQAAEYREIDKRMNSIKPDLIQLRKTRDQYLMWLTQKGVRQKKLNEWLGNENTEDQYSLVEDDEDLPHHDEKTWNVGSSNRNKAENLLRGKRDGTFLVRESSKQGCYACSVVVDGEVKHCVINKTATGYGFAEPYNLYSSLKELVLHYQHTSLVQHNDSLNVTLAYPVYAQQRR
Chain of HDAC1 (Q13547 whole entry, species assumed): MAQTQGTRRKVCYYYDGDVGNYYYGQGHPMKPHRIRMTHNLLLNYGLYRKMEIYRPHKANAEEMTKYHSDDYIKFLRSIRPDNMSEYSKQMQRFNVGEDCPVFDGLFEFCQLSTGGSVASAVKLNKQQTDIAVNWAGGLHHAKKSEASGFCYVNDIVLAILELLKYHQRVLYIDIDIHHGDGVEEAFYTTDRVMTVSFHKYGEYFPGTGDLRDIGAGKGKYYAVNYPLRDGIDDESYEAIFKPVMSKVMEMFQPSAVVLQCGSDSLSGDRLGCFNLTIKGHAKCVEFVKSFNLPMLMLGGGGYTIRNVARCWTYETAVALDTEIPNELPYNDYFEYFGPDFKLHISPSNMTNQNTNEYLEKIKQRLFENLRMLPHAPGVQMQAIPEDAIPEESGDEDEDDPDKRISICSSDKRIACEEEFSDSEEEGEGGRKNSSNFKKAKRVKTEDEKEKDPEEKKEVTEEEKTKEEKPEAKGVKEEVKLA

Row | SMILES | IC50 [2] | IC50 [3] | IC50 [4] | other results
1 | O=C(CCCCCCC(=O)Nc1ccccc1)NO [SAHA, suberoyl anilide hydroxamic acid] | – | – | – | cell cycle arrest [1]: induced arrest of G2/M phase
2 | CC[C@H](C)C1NC(=O)C2CSSCC/C=C/C(CC(=O)N[C@H](C)C(=O)N2)OC(=O)C[C@@H]1O (stereo partly drawn) [SP-2, spiruchastatin B] | 2.2 nM | 1400 nM | – | –
3 | CC(C)[C@H]1NC(=O)CC2/C=C/CCSSCC(NC1=O)C(=O)N[C@H](Cc1ccc(O)cc1)C(=O)NCC(=O)O2 (stereo partly drawn) [FK-A9] | – | – | 14100 nM | –
4 | CC(C)C1NC(=O)CC2/C=C/CCSSCC(NC1=O)C(=O)NCC(=O)NCC(=O)O2 (stereo not drawn) [FK-A2] | 45 nM | 4800 nM | – | –
5 | COc1ccc(C[C@H]2NC(=O)C3CSSCC/C=C/C(CC(=O)N[C@H](C(C)C)C(=O)N3)OC(=O)CNC2=O)cc1 (stereo partly drawn) [FK-A10] | – | – | 26700 nM | –
6 | CC(C)[C@H]1NC(=O)CC2/C=C/CCSSCC(NC1=O)C(=O)N[C@@H](C)C(=O)NCC(=O)O2 (stereo partly drawn) [FK-A4] | 340 nM | 2100 nM | – | –
7 | CC(C)[C@H]1NC(=O)C2CSSCC/C=C/C(CC(=O)N[C@H](C(C)C)C(=O)N2)OC(=O)C[C@@H]1O (stereo partly drawn) [SP-5, spiruchostatin D] | – | – | – | PI3K activity inhibitory rate [4]: higher inhibition rate than FK228
8 | CC[C@@H](C)C1NC(=O)C2CSSCC/C=C/C(CC(=O)N[C@H](C)C(=O)N2)OC(=O)C[C@@H]1O (stereo partly drawn) [SP-3, 5″-epi-spiruchostatin B] | 2.4 nM | 3900 nM | – | A600 [5]: 0.464
9 | CC(C)C[C@@H]1NC(=O)C2CSSCC/C=C/C(CC(=O)N[C@H](C(C)C)C(=O)N2)OC(=O)CNC1=O (stereo partly drawn) [FK-A8] | – | – | 44700 nM | –
10 | CC(C)C[C@H]1NC(=O)C2CSSCC/C=C/C(CC(=O)N[C@H](C(C)C)C(=O)N2)OC(=O)CNC1=O (stereo partly drawn) [FK-A7] | – | – | 32200 nM | –
11 | CC(C)[C@H]1NC(=O)CC2/C=C/CCSSCC(NC1=O)C(=O)N[C@H](Cc1ccc(F)cc1)C(=O)NCC(=O)O2 (stereo partly drawn) [FK-A17] | – | – | 20200 nM | –
12 | O=c1cc(N2CCOCC2)oc2c(-c3ccccc3)cccc12 [LY294002] | – | – | – | A600 [5]: 0.482; expression level of phosphorylated AKT (Ser-473, Thr-308) over time [6]: lowered the expression level of phosphorylated AKT (Ser-473, Thr-308); cell cycle arrest [1]: induced arrest of G0/G1 phase
13 | C/C=C1\NC(=O)C2CSSCC/C=C/C(CC(=O)N[C@H](C(C)C)C(=O)N2)OC(=O)CNC1=O (stereo partly drawn) [FK-A1] | 7.8 nM | 3200 nM | – | –
14 | CC(C)[C@H]1NC(=O)CC2/C=C/CCSSCC(NC1=O)C(=O)N[C@@H](Cc1ccccc1)C(=O)NCC(=O)O2 (stereo partly drawn) [FK-A6] | 19 nM | 2900 nM | – | PI3K activity inhibitory rate [4]: higher inhibition rate than FK228
15 | CC(C)[C@H]1NC(=O)CC2/C=C/CCSSCC(NC1=O)C(=O)N[C@@H](Cc1cccc3ccccc13)C(=O)NCC(=O)O2 (stereo partly drawn) [FK-A12] | – | – | 7200 nM | –
16 | CC(C)C1NC(=O)C2CSSCC/C=C/C(CC(=O)N[C@H](C)C(=O)N2)OC(=O)C[C@@H]1O (stereo partly drawn) [SP-1, spiruchostatin A] | 3.3 nM | 1600 nM | – | A600 [5]: 0.412
17 | CC(C)[C@H]1NC(=O)CC2/C=C/CCSSCC(NC1=O)C(=O)N[C@H](Cc1ccc3ccccc3c1)C(=O)NCC(=O)O2 (stereo partly drawn) [FK-A13] | – | – | 8500 nM | –
18 | CC(C)C1NC(=O)CC2/C=C/CCSSCC(NC1=O)C(=O)N[C@H](C)C(=O)NCC(=O)O2 (stereo partly drawn) [FK-A3] | 4.2 nM | 3200 nM | – | A600 [5]: 0.380; PI3K activity inhibitory rate [4]: higher inhibition rate than FK228
